Laboratory results reported in the supplement of paper PMC3974653.
Counter-ions that a name gives are not always drawn.

The molecules below were run on MTT (mouse pheochromocytoma) (assay: IC50 of cell viability (ATP content)). Conditions: (24 or 48 h).
How it was run: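 MTT mouse pheochromocytoma cells (5 µl of 200,000 cells/ml per well, white 1536-well plates, DMEM with 5% FBS and 1% horse serum) were cultured overnight at 37°C, 5% CO2. They then received 23 nl library compound in DMSO by pintool at 8 concentrations (final 0.5 nM to 46 µM) for 24 or 48 hrs. CellTiter-Glo ATP luminescence was read after 15 minutes. Signals were normalised to positive-control (100% inhibition) and DMSO (0%) wells, and IC50 came from a four-parameter logistic fit.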

Structure (SMILES) | IC50 of cell viability [µM]
O=C(NCCCN1CCOCC1)c1ccc(Cl)cc1 [Eprobemida] | > 46
CCCCc1ncc(/C=C(\Cc2cccs2)C(=O)O)n1Cc1ccc(C(=O)O)cc1 [Eprosartan mesylate] | > 46
COc1cc2[nH]c(C)c(CCN3CCN(c4ccccc4)CC3)c2cc1OC [Equipertine hydrochloride] | > 46
O=C(O)CSCC(=O)NC1CCSC1=O (stereo unspecified) [Erdosteine] | > 46
CN1C[C@@H](\C=C\2[C@H]1CC3=C[NH]C4=C3C2=CC=C4)C(=O)N[C@]5(C)O[C@@]6(O)[C@@H]7CCCN7C(=O)[C@H](CC8=CC=CC=C8)N6C5=O.CN9C[C@@H](\C=C\%10[C@H]9CC%11=C[NH]C%12=C%11C%10=CC=C%12)C(=O)N[C@]%13(C)O[C@@]%14(O)[C@@H]%15CCCN%15C(=O)[C@H](CC%16=CC=CC=C%16)N%14C%13=O.O[C@H]([C@@H](O)C([O-])=O)C(O)=O [Ergotamine D-tartrate] | > 46
C#Cc1cccc(Nc2ncnc3cc(OCCOC)c(OCCOC)cc23)c1 [Erlotinib] | > 46
CCOC(=O)CCC(=O)OC1C(OC2C(C)C(OC3CC(C)(OC)C(O)C(C)O3)C(C)C(=O)OC(CC)C(C)(O)C(O)C(C)C(=O)C(C)CC2(C)O)OC(C)CC1N(C)C (stereo unspecified) [Erythromycin ethyl succinate] | > 46
O=C1OC2(c3ccccc31)c1cc(I)c(O)c(I)c1Oc1c2cc(I)c(O)c1I [Erythrosin B] | > 46
O=C(CN1CCNCC1)NC1CCCCC1 [Esaprazola] | > 46
OC[C@@H]1O[C@@H](OC2=CC\3=C(OC(=O)\C=C3)C=C2O)[C@H](O)[C@H](O)[C@@H]1O [Esculin Hydrate] | > 46
COC(=O)CCc1ccc(OCC(O)CNC(C)C)cc1 (stereo unspecified) [Esmolol hydrochloride] | > 46
CCCCCCC(=O)O[C@@H]1CC[C@H]2[C@@H]3CCc4cc(O)ccc4[C@H]3CC[C@]12C [Estradiol enanthate] | > 46
C[C@]12CC[C@H]3c4ccc(O)cc4CC[C@@H]3[C@H]1CC[C@@H]2OP(=O)(O)O [Estradiol phosphate] | > 46
C[C@@]12CC[C@@H]3c4ccc(O[S+](=O)([O-])O)cc4CC[C@H]3[C@H]1CCC2=O [Estropipate] | > 46
CN1CCN(C(=O)O[C@H]2c3nccnc3C(=O)N2c2ccc(Cl)cn2)CC1 [Eszopiclone] | > 46
CCOC(=O)c1cnc2c(cnn2CC)c1NN=C(C)C.Cl [Etazolate hydrochloride] | > 46
CCN(CC)[S+](=O)([O-])c1ccc(C(=O)O)cc1 [Etebenecid] | > 46
C=C(CC)C(=O)c1ccc(OCC(=O)O)c(Cl)c1Cl [Ethacrynic acid] | > 46
CC[C@H](CO)NCCN[C@@H](CC)CO [Ethambutol dihydrochloride] | > 46
CCN(CC)C(=O)c1ccc(O)c(OC)c1 [Ethamivan] | > 46
CCNCC.O=[S+]([O-])(O)c1cc(O)ccc1O [Ethamsylate] | > 46
NCCO [Ethanolamine] | > 46
CC(=O)c1ccc(OCC(=O)N2CCCCC2)cc1 [Ethanone, 2-(4-acetylphenoxy)-1-(1-piperidinyl)-] | > 46
CCC1Nc2cc(Cl)c([S+](N)(=O)[O-])cc2[S+](=O)([O-])N1 (stereo unspecified) [Ethiazide] | > 46

Structure (SMILES) | IC50 of cell viability [µM]
CC[n+]1c(-c2ccccc2)c2cc(N)ccc2c2ccc(N)cc21 [Ethidium bromide] | > 46
CCc1cc(C(N)=S)ccn1 [Ethionamide] | > 46
CCOC(=O)C1(c2ccccc2)CCCN(C)CC1 (stereo unspecified) [Ethoheptazine hydrochloride] | > 46
CCCSP(=O)(OCC)SCCC [Ethoprop] | > 46
CCN(CC)[C@@H](C)CN1c2ccccc2Sc2ccccc21 [Ethopropazine hydrochloride] | > 46
CC[C@]1(C)CC(=O)NC1=O [Ethosuximide] | > 46
CCN1C(=O)N[C@@H](c2ccccc2)C1=O [Ethotoin] | > 46
CCOC1=CC\2=C(NC(C)(C)\C=C2C)C=C1 [Ethoxyquin] | > 46
CCOC(C)=O [Ethyl acetate] | > 46
CCOC(=O)c1ccccc1O [Ethyl salicylate] | > 46
OCCOc1ccccc1 [Ethylene glycol monophenyl ether] | > 46
NCCN [Ethylenediamine] | > 46
CCOC(=O)c1ccc(O)cc1 [Ethylparaben] | > 46
CCOc1cc(C=O)ccc1O [Ethylvanillin] | > 46
C#CC1(OC(C)=O)CCC2C3CCC4=CC(OC(C)=O)CCC4C3CCC21C (stereo unspecified) [Ethynodiol Diacetate] | > 46
CCc1cc(Cl)c(OC)c(C(=O)NC[C@@H]2CCCN2CC)c1O [Eticlopride hydrochloride] | > 46
CCCN(CC)[C@@H](CC)C(=O)Nc1c(C)cccc1C [Etidocaine] | > 46
CCc1cccc(CC)c1NC(=O)CN(CC(=O)O)CC(=O)O [Etifenin] | > 46
CCNC[C@H](O)c1cccc(O)c1 [Etilefrine hydrochloride] | > 46
CCC(C(N)=O)N1CCCC1=O (stereo unspecified) [Etiracetam] | > 46
CCOc1ccc(NC(=S)Nc2ccc(OCC)cc2)cc1 [Etocarlida] | > 46
CCOC(=O)C(\C#N)=C(/C1=CC=CC=C1)C2=CC=CC=C2 [Etocrylene] | > 46
CCc1cccc2c3c([nH]c12)[C@](CC)(CC(=O)O)OCC3 [Etodolac] | > 46
O=C(OCCOCCO)c1ccccc1Nc1cccc(C(F)(F)F)c1 [Etofenamate] | > 46

Structure (SMILES) | IC50 of cell viability [µM]
CCOC(=O)c1cncn1[C@@H](C)c1ccccc1 [Etomidate] | > 46
COc1cc([C@H]2c3cc4c(cc3[C@@H](O[C@@H]3O[C@H]5CO[C@@H](C)O[C@@H]5[C@@H](O)[C@H]3O)[C@@H]3COC(=O)[C@H]23)OCO4)cc(OC)c1O [Etoposide] | > 46
CC12CCC(CC1)C(C)(C)O2 [Eucalyptol] | > 46
C[C@@H]1C[C@@H](OC(=O)[C@@H](O)c2ccccc2)CC(C)(C)N1C [Eucatropine hydrochloride] | > 46
C=CCc1ccc(O)c(OC)c1 [Eugenol] | > 46
CC(=O)OCC(CCn1cnc2cnc(N)nc21)COC(C)=O [FAMCICLOVIR] | > 46
NC(N)=Nc1nc(CSCC/C(N)=N/[S+](N)(=O)[O-])cs1 [FAMOTIDINE] | > 46
COP(=S)(OC)Oc1ccc([S+](=O)([O-])N(C)C)cc1 [FAMPHUR] | > 46
O=[S+]1([O-])c2cccc3cccc(c23)N1CCCN1CCN(c2ccc(F)cc2)CC1 [FANANSERINUM] | > 46
O=c1[nH]c2cc(C(F)(F)F)c(N3CCOCC3)cc2n(CP(=O)(O)O)c1=O [FANAPANELUM] | > 46
O=C1CC[C@H](C(=O)N2CCCCC2)N1 [FASORACETAM HYDRATE] | > 46
NC(=O)OCC(COC(N)=O)c1ccccc1 [FELBAMATE] | > 46
CCOC(=O)Cc1ccc(-c2ccccc2)cc1 [FELBINAC ETHYL] | > 46
NCCCCC(NC(=O)C1CCCN1C(=O)C1CSSCC(N)C(=O)NC(Cc2ccccc2)C(=O)NC(Cc2ccccc2)C(=O)NC(CCC(N)=O)C(=O)NC(CC(N)=O)C(=O)N1)C(=O)NCC(N)=O (stereo unspecified) [FELYPRESSIN] | > 46
Nc1ccc(C(=O)Oc2ccccc2)c(O)c1 [FENAMISAL] | > 46
CC12CCC(C1)C(C)(C)C2=O (stereo unspecified) [FENCHONE] | > 46
CCCC[C@H](O)c1ccccc1 [FENIPENTOL] | > 46
Cn1cc(O)nc1NC(=O)Nc1cccc(Cl)c1 [FENOBAMUM] | > 46
Oc1ccc(C2CNCCc3c2cc(O)c(O)c3Cl)cc1 (stereo unspecified) [FENOLDOPAM] | > 46
C[N+]1(CCC(C(N)=O)(c2ccccc2)c2ccccc2)CCCCC1 [FENPIVERINII BROMIDUM] | > 46
Cl.O=C1NCC2(CCN(CCc3ccccc3)CC2)O1 [FENSPIRIDE HYDROCHLORIDE] | > 46
Cc1ccc(/C=N/n2c(-c3ccccc3)csc2=S)cc1 [FEZATIONE] | > 46
NC(=O)C1CC2(NC(=O)NC2=O)c2cc(F)ccc2O1 (stereo unspecified) [FIDARESTAT] | > 46
